Source: the supplement of paper PMC10307832

Assays:
Assay in all cases: relative viability (nuclei count vs DMSO), 5 days (fraction); higher = more cells survive
LOU-NH91 = system: LOU-NH91
Summary of the method: (§1)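 The day after seeding in 1536-well plates, lung cancer cell lines were treated by pin tool with a single drug, or with a fixed anchor-drug dose together with five library-drug doses (not always all listed) in √10 steps. After 5 days, a combined fix-and-stain solution (final 0.05% Triton X-100, 1% formaldehyde, 1 ug/ml Hoechst) was added. Nuclei counted on 4× images gave relative viability as treated counts over vehicle counts, reported as the median of duplicate plates.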

HOP-62 = system: HOP-62
Summary of the method: as §1

SK-LU-1 = system: SK-LU-1
Summary of the method: as §1

NCI-H2228 = system: NCI-H2228
Summary of the method: as §1

NCI-H1975 = system: NCI-H1975
Summary of the method: as §1

PC-3 [JPC-3] = system: PC-3 [JPC-3]
Summary of the method: as §1

NCI-H650 = system: NCI-H650
Summary of the method: as §1

HCC-827 = system: HCC-827
Summary of the method: as §1

SW 900 = system: SW 900
Summary of the method: as §1

COR-L 105 = system: COR-L 105
Summary of the method: as §1

H3255 = system: H3255
Summary of the method: as §1

ChaGo-K-1 = system: ChaGo-K-1
Summary of the method: as §1

Cc1csc(=NC2CCCCC2)n1/N=C/c1ccc(O)c(O)c1O [MIM1] + CCNC(=O)c1noc(-c2cc(C(C)C)c(O)cc2O)c1-c1ccc(CN2CCOCC2)cc1 [Luminespib] (partner 0.01 µM)
relative viability (LOU-NH91; first compound 6.325 µM): 0.271
relative viability (LOU-NH91; first compound 20 µM): 0.268
relative viability (HOP-62; first compound 0.2 µM): 1.01
relative viability (HOP-62; first compound 0.6325 µM): 0.841
relative viability (HOP-62; first compound 2 µM): 0.893
relative viability (HOP-62; first compound 6.325 µM): 0.758
relative viability (HOP-62; first compound 20 µM): 0.301
relative viability (SK-LU-1; first compound 0.2 µM): 0.178
relative viability (SK-LU-1; first compound 0.6325 µM): 0.21
relative viability (SK-LU-1; first compound 2 µM): 0.181
relative viability (SK-LU-1; first compound 6.325 µM): 0.196
relative viability (SK-LU-1; first compound 20 µM): 0.227
relative viability (NCI-H2228; first compound 0.2 µM): 0.18
relative viability (NCI-H2228; first compound 0.6325 µM): 0.155
relative viability (NCI-H2228; first compound 2 µM): 0.181
relative viability (NCI-H2228; first compound 6.325 µM): 0.151
relative viability (NCI-H2228; first compound 20 µM): 0.111
relative viability (NCI-H1975; first compound 0.2 µM): 0.202
relative viability (NCI-H1975; first compound 0.6325 µM): 0.261
relative viability (NCI-H1975; first compound 2 µM): 0.193
relative viability (NCI-H1975; first compound 6.325 µM): 0.279
relative viability (NCI-H1975; first compound 20 µM): 0.136
relative viability (PC-3 [JPC-3]; first compound 0.2 µM): 0.508
relative viability (PC-3 [JPC-3]; first compound 0.6325 µM): 0.661
relative viability (PC-3 [JPC-3]; first compound 2 µM): 0.674
relative viability (PC-3 [JPC-3]; first compound 6.325 µM): 0.65
relative viability (PC-3 [JPC-3]; first compound 20 µM): 0.594
relative viability (NCI-H650; first compound 0.2 µM): 0.822
relative viability (NCI-H650; first compound 0.6325 µM): 0.619
relative viability (NCI-H650; first compound 2 µM): 0.85
relative viability (NCI-H650; first compound 6.325 µM): 0.704
relative viability (NCI-H650; first compound 20 µM): 0.288
relative viability (HCC-827; first compound 0.2 µM): 0.517
relative viability (HCC-827; first compound 0.6325 µM): 0.384
relative viability (HCC-827; first compound 2 µM): 0.698
relative viability (HCC-827; first compound 6.325 µM): 0.371
relative viability (HCC-827; first compound 20 µM): 0.184
relative viability (SW 900; first compound 0.2 µM): 0.174
relative viability (SW 900; first compound 0.6325 µM): 0.199
relative viability (SW 900; first compound 2 µM): 0.19
relative viability (SW 900; first compound 6.325 µM): 0.185
relative viability (SW 900; first compound 20 µM): 0.2
relative viability (COR-L 105; first compound 0.2 µM): 0.721
relative viability (COR-L 105; first compound 0.6325 µM): 0.918
relative viability (COR-L 105; first compound 2 µM): 0.813
relative viability (COR-L 105; first compound 6.325 µM): 0.642
relative viability (COR-L 105; first compound 20 µM): 0.801
relative viability (H3255; first compound 0.2 µM): 0.865
relative viability (H3255; first compound 0.6325 µM): 0.85
relative viability (H3255; first compound 2 µM): 0.798
relative viability (H3255; first compound 6.325 µM): 0.769
relative viability (H3255; first compound 20 µM): 0.34
relative viability (ChaGo-K-1; first compound 0.2 µM): 0.559
relative viability (ChaGo-K-1; first compound 0.6325 µM): 0.735
relative viability (ChaGo-K-1; first compound 2 µM): 0.473
relative viability (ChaGo-K-1; first compound 6.325 µM): 0.323
relative viability (ChaGo-K-1; first compound 20 µM): 0.158
